Test results reported in patent publication US20100204150A1, “USE OF A PEPTIDE AS A THERAPEUTIC AGENT” (priority 2007, published 2010).
Where no end group is shown, it is not given here. [ ]: non-standard residue; d: D form.

Test system: drug-resistant Mycobacterium tuberculosis
Experiment: Mycobacterium tuberculosis assay
Type: cell-based
Details: 10 micrograms per ml; seven days; strain resistant to PAS, streptomycin and INH; combination 0.95:1.05 mole and all ratios 1:100 to 100:1

Substance | inhibition of the growth of Mycobacterium tuberculosis [%]
Ac-Arg-Phe-Met-Trp-Met-Arg-NH2 (Ac-RFMWMR-NH2) [Peptide 2] | 100
HPFHL[dL]VY-OH [Peptide 1] | 100
